{"source": "patent US20250107526A1", "about": "“METHOD OF IMPROVING PLANT GROWTH” (UPL CORPORATION LIMITED, priority 2022, published 2025)", "format_in_all_cases": "in vivo", "key": {"[1]": {"tested_on": "Corn seeds", "test": "Emergence speed index (ESI) of treated seeds, corn", "conditions": "suspension concentrate of 40% cyazofamid", "method": "(§1) The seed emergence index was evaluated for seeds of different crops including corn, cotton and wheat treated with cyazofamid. The treatment protocol and the results are disclosed in the table below. […] A suspension concentrate of 40% cyazofamid was used in the treatment."}, "[2]": {"tested_on": "Cotton seeds", "test": "Emergence speed index (ESI) of treated seeds, cotton", "conditions": "suspension concentrate of 40% cyazofamid", "method": "as §1"}, "[3]": {"tested_on": "Wheat seeds", "test": "Emergence speed index (ESI) of treated seeds, wheat", "conditions": "suspension concentrate of 40% cyazofamid", "method": "as §1"}, "[4]": {"tested_on": "seeds of different crops including corn, cotton and wheat", "method": "as §1"}, "[5]": {"tested_on": "wheat grains", "test": "Plant growth improvement of wheat grains treated with cyazofamid, field trials", "text": "The present inventors have determined the plant growth improvement in wheat grains treated with cyazofamid in field trials. The treatments employed have been depicted in table 4 below. The results in terms of crop establishment in field, root weight, shoot weight and the total plant weight have been indicated in table 5 below: [table]"}, "[6]": {"tested_on": "maize seeds inoculated with Pythium ultimum", "test": "Emergence and vigor of maize seeds inoculated with Pythium ultimum after cyazofamid seed treatment (growth chamber)", "conditions": "160 g/l suspension concentrate, 20 days after sowing", "method": "An inoculum of Pythium ultimum isolated from cotton was used to inoculate maize seeds. The infected maize grains were mixed with soil in a ratio of 10:90 v/v, respectively. The seeds were treated as depicted in the Table 1 below. The seeds used in treatments 1, 3 and 4 were inoculated with Pythium ultimum. The said seeds were cultivated in a growth chamber at a temperature of 22° C., for a 10 h dark/14 h light photoperiod. The seed arrangement was 10 seeds/plot (pot 10×10 cm); 3rep1/treatment. [table] The % emergence of seeds and the % vigor was observed 20 days after sowing of seeds."}, "[7]": {"conditions": "10 g ai/100 kg (25 ml/100 kg seeds)"}, "[8]": {"conditions": "20 g ai/100 kg (50 ml/100 kg seeds)"}, "[9]": {"conditions": "30 g ai/100 kg (75 ml/100 kg seeds)"}, "[10]": {"conditions": "50 g ai/100 kg (125 ml/100 kg seeds)"}, "[11]": {"conditions": "100 g ai/100 kg (250 ml/100 kg seeds)"}, "[12]": {"conditions": "seed treatment 10 g/100/kg seeds"}, "[13]": {"conditions": "seed treatment 50 g/100/kg seeds"}}, "data": [{"compound": "Cc1ccc(-c2c(Cl)nc(C#N)n2S(=O)(=O)N(C)C)cc1", "note": "[Cyazofamid, 4-chloro-2-cyano-N, N-dimethyl-5-p-tolylimidazole-1-sulfonamide]", "values": [{"measurement": "Emergence speed index (ESI)", "setting": "[1]; 10 g ai/100 kg", "value": 32.7}, {"measurement": "Emergence speed index (ESI)", "setting": "[1]; 50 g ai/100 kg", "value": 32.9}, {"measurement": "Emergence speed index (ESI)", "setting": "[1]; 100 g ai/100 kg", "value": 32.6}, {"measurement": "Emergence speed index (ESI)", "setting": "[2]; 10 g ai/100 kg", "value": 6.9}, {"measurement": "Emergence speed index (ESI)", "setting": "[2]; 50 g ai/100 kg", "value": 6.3}, {"measurement": "Emergence speed index (ESI)", "setting": "[2]; 100 g ai/100 kg", "value": 6.5}, {"measurement": "Emergence speed index (ESI)", "setting": "[3]; 10 g ai/100 kg", "value": 22.7}, {"measurement": "Emergence speed index (ESI)", "setting": "[3]; 50 g ai/100 kg", "value": 23.0}, {"measurement": "Emergence speed index (ESI)", "setting": "[3]; 100 g ai/100 kg", "value": 22.5}, {"measurement": "phytotoxicity in the emergent plants", "setting": "[4]; in vivo", "value": "no phytotoxicity observed"}, {"measurement": "emergence index of treated seeds compared with untreated seeds", "setting": "[4]; in words, corn, cotton and wheat seeds, 10-100 g ai/100 kg", "value": "more efficient than untreated seeds"}, {"measurement": "Root weight", "setting": "[5]; [7]", "value": 3.1, "unit": "g"}, {"measurement": "Shoot weight", "setting": "[5]; [7]", "value": 5.9, "unit": "g"}, {"measurement": "Total plant weight", "setting": "[5]; [7]", "value": 9.0, "unit": "g"}, {"measurement": "Crop establishment plants/m row 25 DAA", "setting": "[5]; [7]", "value": 81.5, "unit": "plants/m row"}, {"measurement": "Crop establishment plants/m row 38 DAA", "setting": "[5]; [7]", "value": 74.5, "unit": "plants/m row"}, {"measurement": "Root weight", "setting": "[5]; [8]", "value": 3.1, "unit": "g"}, {"measurement": "Shoot weight", "setting": "[5]; [8]", "value": 5.3, "unit": "g"}, {"measurement": "Total plant weight", "setting": "[5]; [8]", "value": 8.4, "unit": "g"}, {"measurement": "Crop establishment plants/m row 25 DAA", "setting": "[5]; [8]", "value": 73.1, "unit": "plants/m row"}, {"measurement": "Crop establishment plants/m row 38 DAA", "setting": "[5]; [8]", "value": 79.4, "unit": "plants/m row"}, {"measurement": "Root weight", "setting": "[5]; [9]", "value": 3.8, "unit": "g"}, {"measurement": "Shoot weight", "setting": "[5]; [9]", "value": 5.4, "unit": "g"}, {"measurement": "Total plant weight", "setting": "[5]; [9]", "value": 9.2, "unit": "g"}, {"measurement": "Crop establishment plants/m row 25 DAA", "setting": "[5]; [9]", "value": 74.8, "unit": "plants/m row"}, {"measurement": "Crop establishment plants/m row 38 DAA", "setting": "[5]; [9]", "value": 80.8, "unit": "plants/m row"}, {"measurement": "Root weight", "setting": "[5]; [10]", "value": 3.0, "unit": "g"}, {"measurement": "Shoot weight", "setting": "[5]; [10]", "value": 5.0, "unit": "g"}, {"measurement": "Total plant weight", "setting": "[5]; [10]", "value": 8.1, "unit": "g"}, {"measurement": "Crop establishment plants/m row 25 DAA", "setting": "[5]; [10]", "value": 75.6, "unit": "plants/m row"}, {"measurement": "Crop establishment plants/m row 38 DAA", "setting": "[5]; [10]", "value": 82.5, "unit": "plants/m row"}, {"measurement": "Root weight", "setting": "[5]; [11]", "value": 2.9, "unit": "g"}, {"measurement": "Shoot weight", "setting": "[5]; [11]", "value": 5.2, "unit": "g"}, {"measurement": "Total plant weight", "setting": "[5]; [11]", "value": 8.1, "unit": "g"}, {"measurement": "Crop establishment plants/m row 25 DAA", "setting": "[5]; [11]", "value": 74.0, "unit": "plants/m row"}, {"measurement": "Crop establishment plants/m row 38 DAA", "setting": "[5]; [11]", "value": 79.9, "unit": "plants/m row"}, {"measurement": "crop establishment in field, root weight, shoot weight and total plant weight compared with untreated control", "setting": "[5]; in words, treated wheat grains, 10-100 g ai/100 kg", "value": "higher"}, {"measurement": "% emergence (20 DAS)", "setting": "[6]; [12]", "value": 76.67, "unit": "%"}, {"measurement": "% vigor (20 DAS)", "setting": "[6]; [12]", "value": 86.67, "unit": "%"}, {"measurement": "% emergence (20 DAS)", "setting": "[6]; [13]", "value": 73.33, "unit": "%"}, {"measurement": "% vigor (20 DAS)", "setting": "[6]; [13]", "value": 83.33, "unit": "%"}]}]}
